From PubChem BioAssay (NCI)
Several values for one entry are separate records, joined by “and”; a condition that tells them apart may be missing. Equal entries are not always repeated.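 Interpolation was linear, between the two tested concentrations surrounding the appropriate level; five concentrations were tested over 48 hours in 96-well plates. GI50 marks 50% less growth. TGI: concentration producing complete growth inhibition.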

Tests used:
Assay in all cases: NCI anticancer screen, dose series, 48 h
[1] = system: HS 578T breast
[2] = system: SF-268 CNS
[3] = system: SK-MEL-2 melanoma
[4] = system: LOX IMVI melanoma
[5] = system: NCI/ADR-RES ovarian
[6] = system: CAKI-1 renal
[7] = system: UACC-257 melanoma
[8] = system: ACHN renal
[9] = system: KM12 colon
[10] = system: OVCAR-3 ovarian

SMILES | TGI [1] | TGI [2] | TGI [3] | TGI [4] | TGI [5] | TGI [6] [µM] | TGI [7] | TGI [8] | TGI [9] | TGI [10] | GI50 [1] [µM] | GI50 [2] [µM] | GI50 [3] [µM] | GI50 [4] [µM] | GI50 [5] [µM] | GI50 [7] [µM] | GI50 [8] [µM] | GI50 [9] [µM] | GI50 [10] [µM]
Cc1cc(NS(=O)(=O)c2ccc(NO)cc2)no1 | > 100 µM | > 100 µM | > 100 µM | 39.6 µM | > 100 µM | > 100 | > 100 µM | > 100 µM | > 100 µM | > 100 µM | – | – | – | – | – | – | – | – | –
CC1(C)CC(=O)c2c(-c3ccc(Cl)cc3)c(C#N)c(=S)n(C3OC(CO)C(O)C(O)C3O)c2C1 (stereo not drawn) | > 100 µM | > 100 µM | 43.9 µM | 49.4 µM | > 100 µM | > 100 | 98.2 µM | > 100 µM | > 100 µM | 90.7 µM | – | – | – | – | – | – | – | – | –
Nc1ccc(-c2nc3ccccc3s2)cc1CO | > 100 µM | > 100 µM | > 100 µM | > 100 µM | > 100 µM | > 100 | > 100 µM | > 100 µM | > 100 µM | > 100 µM | – | – | – | – | – | – | – | – | –
CC(C)(C)OC(=O)N(O)CCCn1cnc2c(NC3CC3)ncnc21 | > 100 µM | > 100 µM | > 100 µM | > 100 µM | > 100 µM | > 100 | > 100 µM | > 100 µM | > 100 µM | > 100 µM | – | – | – | – | – | – | – | – | –
O=C(Nc1ccccc1)OCCN=c1c2ccccc2ccc2ccccc12 | 51.3 µM | > 100 µM | 29.1 µM | 44.5 µM | 65.9 µM | 90.6 | 42.2 µM | 61.8 µM | 44.4 µM | 44.2 µM | – | – | – | – | – | – | – | – | –
COc1ccc(/C(C)=C2\CCCN(Cc3ccccc3)C2)cc1 | 29.2 µM | 40.6 µM | 43.4 µM | 35.3 µM | 57.5 µM | 58.4 | 86.4 µM | 98.4 µM | 33.3 µM | 37.4 µM | – | – | – | – | – | – | – | – | –
COc1ccc2nc3ccc(OC)cc3c(S(=O)Cc3ccccc3)c2c1 (stereo not drawn) | 33.8 µM | 40.2 µM | 33 µM | 6.66 µM | 46.7 µM | 25.6 | 20.9 µM | 15.2 µM | 40.5 µM | 26.1 µM | – | – | – | – | – | – | – | – | –
COc1cccc(CCn2c(N)c(-c3cc(Cl)cc(Cl)c3)c3ccc([N+](=O)[O-])cc3c2=O)c1 | > 38 µM | > 100 µM | > 31.4 µM | > 56.1 µM | > 55 µM | 41.7 | 24.4 µM | 22.5 µM | > 100 µM | > 100 µM | – | – | – | – | – | – | – | – | –
CCOC(=O)c1ccc(N=C2Sc3nc4ccccc4n3C2=Nc2ccc(C(=O)OCC)cc2)cc1 | 75.5 µM | 84.3 µM | 91.5 µM | 81.8 µM | 72.7 µM | 70.6 | > 100 µM | 57.2 µM | > 100 µM | 53.4 µM | – | – | – | – | – | – | – | – | –
N#CCCC1(CCC#N)S(=O)(=O)OCCOS1(=O)=O | 78.4 µM | > 100 µM | > 100 µM | > 100 µM | > 100 µM | > 100 | > 100 µM | > 100 µM | > 100 µM | > 100 µM | – | – | – | – | – | – | – | – | –
CCC1=CC(OCc2ccccc2)C(CCN(Cc2ccccc2)C(=O)OCc2ccccc2)C1 (stereo not drawn) | 32.6 µM | 32.5 µM | 42.1 µM | 32.7 µM | 35.3 µM | 28.3 | 30.3 µM | 30.9 µM | 29.7 µM | 28.4 µM | – | – | – | – | – | – | – | – | –
COC(=O)CN1Cc2cc(C)cc(c2O)CN(CC(=O)OC)Cc2cc(C)cc(c2O)CN(CC(=O)OC)Cc2cc(C)cc(c2O)CN(CC(=O)OC)Cc2cc(C)cc(c2O)C1 | 50 µM and > 100 µM | 50 µM and > 100 µM | 50 µM and 31.3 µM | 50 µM and > 100 µM | 50 µM and 64 µM | 50 | 50 µM and > 100 µM | 50 µM and > 100 µM | 50 µM and > 100 µM | 32.1 µM and > 100 µM | > 100 | > 100 | 2.36 | 8.68 | 21.9 | 50.4 | 34.6 | 50.2 | 5.7
CC(=O)N1C(c2[nH]c3ccccc3c2Cc2ccccc2)CCN1c1ccccc1 (stereo not drawn) | > 10 µM | > 10 µM | > 10 µM | > 10 µM | > 10 µM | > 10 | > 10 µM | > 10 µM | – | > 10 µM | – | – | – | – | – | – | – | – | –
O=C1c2ccccc2C(=O)c2c1oc1cc(O)c(Cl)cc21 | 15.5 µM | 31.9 µM | 7.16 µM | 7.88 µM | 45.4 µM | 32.5 | 7.78 µM | 17 µM | 19.4 µM | 8.52 µM | – | – | – | – | – | – | – | – | –
COC1(OC)CCN(Cc2ccccc2)C1=O | > 100 µM | > 52.8 µM | 34 µM | 16.6 µM | 55.3 µM | 13 | 28.6 µM | 19.7 µM | 32.2 µM | 23.7 µM | – | – | – | – | – | – | – | – | –
CC/C(Cl)=N\OC(=O)Nc1ccc(F)c(Cl)c1 | > 100 µM | 43.4 µM | 33.5 µM | 9.68 µM | 42.7 µM | 9.55 | 31.9 µM | 26.7 µM | 35 µM | 8.03 µM | – | – | – | – | – | – | – | – | –
